From article PMC8533176, “1,5-Benzodiazepin-2(3H)-ones: In Vitro Evaluation as Antiparkinsonian Agents” (Antioxidants, 2021)

Columns and labels:
[1] = Kinetic solubility by UV spectrometry; format: physicochemical; conditions: PBS 50 mM, aqueous buffer, kinetic from dmso stock
Protocol: A modified protocol was used from that described by Hoelke et al. for the determination of the kinetic solubility from DMSO compound solutions. A compound calibration curve (compound concentration vs UV absorption) was prepared for each compound with concentrations of 10, 20, 50, 100, and 200 µM. Each compound dilution was carried out by pipetting defined volumes of a 20 mM stock compound solution in DMSO into vials and adding PBS 50 mM to reach a final volume of 1 mL/well. The final amount of DMSO per well was 2%. For the lower compound concentrations, an additional volume of DMSO was added to each well to reach 2% DMSO. Then, 200 µL of each dilution was transferred to a new 96-well culture plate for the measurement of the UV-spectra. One well in each row was left without a compound as a blank, and its UV absorbance was used as an offset correction. The experiments were performed in duplicate.
In parallel, compound saturation solutions were reached and filtered from 20 mM compound stock in DMSO: 10 µL of a 20 mM stock solution was dispensed into 190 µL of PBS 10 mM. The solutions were mixed, shaken on a microplate shaker for two hours, and then 160 µL of each solution was filtered and transferred to a new well plate for UV absorption measurement.
Measurement of the UV-spectra was performed using a Varioskan microplate reader, and spectra were taken in the range of 270–600 nm. Spectral bandwidth was set to 5 nm, and the data pint interval was 10 nm. The experiments were carried out in triplicate.

SH-SY5Y cells [2] = test: Cytotoxicity, MTT assay, SH-SY5Y; format: cell-based; conditions: Homo sapiens, MTT, cytotoxicity, read-out: SH-SY5Y IC50
Protocol: (§1) All compounds tested were dissolved and eventually further diluted in dimethylsulfoxide (DMSO). After overnight incubation, the cells were treated with different compound concentrations (5, 10, 20, 50, 100, 150, 200 µM) in a final volume of 200 µL with four replicates each. […] Cell proliferation or viability was measured using the 3-(4,5-dimethylthiazol-2-yl)-2,5-diphenyl tetrazolium bromide (MTT) assay. The MTT assay was optimized taking into account the number of cells plated per well, to work in the linear part of the cell density vs. MTT absorbance calibration curve, which allows achieving a maximum absorbance in the range of 0.8–1.0 in each well at the end of the experiment. In addition to that, the number of cells seeded for each experiment was optimized in agreement with the time scale of the experiment.
(§2) After cell treatment, 20 µL of MTT (5 mg/mL) was added to each well, and the plate was incubated at 37 °C in the dark for 2 h. Supernatants were removed, and the formazan crystals were solubilized in DMSO (200 µL/well), under 10 min shaking at room temperature. The reduction of MTT was quantified by absorbance at 570 nm in a Varioskan microplate reader (Thermo Fisher Scientific, Vantaa, Finland). Effects of the test compounds on cell viability were calculated using cells treated with a vehicle as a control. For IC50 and LD50 calculations, the data were subjected to linear regression analysis, and the regression lines were plotted for the best fit. The IC50 (inhibition of cell viability) concentrations were calculated using the respective dose–response curves.

HepG2 cells = test: Cytotoxicity, MTT assay, HepG2; format: cell-based; conditions: Homo sapiens, HepG2; MTT, cytotoxicity; read-out: HepG2 IC50
Protocol: as §1, §2

SH-SY5Y cells [3] = test: LDH release under H2O2; format: cell-based, human; conditions: H2O2 250 µM 24 h; compounds 24 h before; Figure 9
SH-SY5Y cells [4] = test: Neuroprotection in the 6-OHD neurotoxicity-induced model, MTT; format: cell-based, human; conditions: 6-OHD 250 µM 48 h; compounds 24 h before
SH-SY5Y cells [5] = test: Neuroprotection in the MPP+ neurotoxicity-induced model, MTT; format: cell-based, human; conditions: MPP+ 700 µM 48 h; compounds 24 h before
SH-SY5Y cells [6] = test: Mitochondrial superoxide levels (MitoSOX); format: cell-based, human; conditions: H2O2 250 µM; compounds 24 h before
Protocol: Mitochondrial superoxide levels were measured with MitoSOX red (3,8-phenanthridinediamine, 5-(60-triphenylphosphoniumhexyl)-5,6-dihydro-6-phenyl) from Molecular Probes (Thermo Fisher Scientific, 29851Willow Creek Road, Eugene, OR, USA). After SH-SY5Y cell treatment in 96-well culture black clear bottom plates, the medium was removed and cells were washed with PBS and afterward, MitoSOX red (final concentration of 5 µM) in 200 µL of PBS was added and incubated for 20 min at 37 °C. After incubation, the cells were washed with warm PBS buffer, and fluorescence was measured at 510 nm excitation/640 nm emission wavelengths in a Varioskan microplate reader (Thermo Fisher Scientific, Vantaa, Finland).

[7] = test system: Caspase-3 activity in SH-SY5Y cells; test: Caspase-3 activity; format: cell-based, human; conditions: H2O2 500 µM 4 h; compound 24 h before
Protocol: Caspase-3 activity was measured using the Abcam fluorimetric kit (ab39383) according to the manufacturer’s instructions. Cells are washed with ice-cold PBS and lysed with lysis buffer. After compound and stressor treatments, SH-SY5Y cells were scraped off from p6 plates and collected in a 1.5 mL Eppendorf vial. The cell suspension was then centrifuged at 9000× g for 10 min at 4 °C. The supernatant was collected and stored at −80 °C for 24 h. Caspase 3 activity was measured as the ability of the cell extract to cleave the […] fluorochrome. The sample’s protein concentration was determined by the Bradford method. The reaction assay was performed by the addition of 50 μL of the cell lysate into the wells of a black 96-well culture plate followed by the addition of 50 μL of 2× reaction buffer containing DTT (10 mM) and caspase-3 substrate DEVD-AFC (final concentration 50 μM). Reagents were mixed by shaking the plate for 2 min at 300 rpm and then incubated at 37 °C for 2 h. Caspase-3 activity was measured as fluorescence intensity in a Varioskan microplate reader at λex = 400 nm and λem = 505 nm wavelengths. Relative fluorescence units (RFU)/mg of protein were calculated, and the fold increase in Caspase-3 activity was compared with that of the control.

SH-SY5Y cells [8] = test: Lipid peroxidation (MDA, TBARS); format: cell-based, human; conditions: 250 µM H2O2 24 h; 10 and 20 µM 24 h before
Protocol: For MDA studies, 2 × 10^5 SH-SY5Y cells were seeded in 6-well culture plates. After 24 h, cells were treated with the test compound and incubated for another 24 h. After compound treatment, cells were exposed to H2O2 for 24 h. Then, the cells were washed twice with cold 50 mM PBS buffer, detached, and lysed with lysis buffer, and TBA was added to each sample tube and vortexed. The reaction mixture was incubated at 96 °C for 60 min. After incubation, samples were cooled and centrifuged 10 min at 10^4 rpm. Samples were dispensed in 96-well culture black clear bottom plates, and fluorescence was measured with a Varioskan microplate reader at λex = 540 nm and λem = 590 nm wavelengths. Protein concentration was measured by the Bradford protein assay. The levels of MDA were expressed as nmol/mg protein. Experiments were performed four times in triplicate.

diffSH-SY5Y cells = test: Neuroprotection in differentiated SH-SY5Y cells, MTT; format: cell-based, human; conditions: H2O2 500 µM 24 h; 0, 2, 5, 10, 20, and 40 µM 24 h before
[9] = Chemical reactivity with H2O2; format: physicochemical; conditions: H2O2 500 µM, 37 °C, 4 h; pH ≥ 7.4
Protocol: In our case, before running the protection experiments under oxidative stress conditions, we carried out experiments to assess the potential reactivity of compounds 9, 11, 13, and 18 at four different concentrations (5, 10, 20, and 40 µM) with H2O2 500 µM at 37 °C for 4 h in DMEM:F12 (without phenol red, FBS, and cells). Curcumin was used as a control compound.

[10] = previously reported; cited from earlier work
SH-SY5Y cells [11] = test: Neuroprotection against H2O2-induced oxidative stress, MTT; conditions: H2O2 250 µM 24 h; compounds 5-50 µM 24 h before; Figure 8

solubility [1]: < 50 µM
concentration decrease in the presence of H2O2 [9]: 30%
Compound: COc1cc(/C=C/C(=O)CC(=O)/C=C/c2ccc(O)c(OC)c2)ccc1O [Curcumin, reference compound]
IC50 (SH-SY5Y cells [2]): 48.8 ± 5.1 µM
IC50 (HepG2 cells): 110 ± 9.8 µM
LDH leakage (SH-SY5Y cells [3]): reduced LDH leakage to some degree
Neuroprotection, cell viability (MTT), 6-OHD model (SH-SY5Y cells [4]): did not show any protection
Neuroprotection, cell viability (MTT), MPP+ model (SH-SY5Y cells [5]): did not yield any protection
Reduction in mitochondrial superoxide levels (SH-SY5Y cells [6]): only a clear reduction at 20 µM
Caspase-3 activity reduction [7]: did not show any reduction in caspase-3 activity
Effect on MDA levels (SH-SY5Y cells [8]): reduction of MDA levels although without statistical significance
Neuroprotection, diffSH-SY5Y cell viability (MTT) (diffSH-SY5Y cells): more irregular activity profile with some toxicity at 40 µM
water solubility [10]: < 0.6 µg/mL
Neuroprotection effect, cell viability (MTT) (SH-SY5Y cells [11]): only showed slight protection at concentrations 5 and 10 µM
